tested on: MCF7 (breast cancer) cells; assay: MTT cytotoxicity assay in MCF7 breast cancer cells; assay type: cell-based; conditions: 65 hours incubation, read-out: IC50, viability of MCF7 cells from the MTT assay
Experimental: The cyctoxicity of compounds was determined in MCF 7 (breast cancer) cells.
MCF7 cells were grown in RPMI 1640 media with 10 nM estrogen and 1 mM insulin. Cells were tyripsinized and resuspended at a density of 2.2×10^4 cells per mL. 500 μL of this suspension was added to each well in a 24 well plate. The plates were incubated at 37° C. and 5% CO2 atmosphere overnight. The media was changed, and plates were dosed in triplicate with compound dissolved in DMSO. Cells were dosed not to exceed 0.5% DMSO in solution. Cells were dosed to a final concentration of 100, 50, 25, 12.5, and 6.25 μM of compound. 5-Flurouracil was used as a positive control and dosed in the same manner. Plates were incubated for 65 hours prior to the addition of MTT solution. 500 μL of a 193 μg/mL MTT and media solution was added to each well. Plates were incubated for 3 hours. The MTT solution was removed and 500 μL of DMSO was added to each well. Cells were imaged using GS 800 Bio Rad scanner and Quality One Software. IC50 curves were determined by plotting viability verses compound concentration. Kaleidagraph software was used to calculate the R value for each logarithmic curve fitting.

SMILES	IC50
CC(C)(C)C(OCc1c[nH]c(=O)[nH]c1=O)c1ccccc1 (stereo not drawn) [KB-1-23, 5-[1-phenyl-2,2-(dimethyl)propoxymethyl]uracil]	59 µM
COc1ccc(C(OCc2cn([C@H]3C[C@H](O)[C@@H](CO)O3)c(=O)[nH]c2=O)C(C)(C)C)cc1 (stereo partly drawn) [KB-1-55, 5-[1-(4-methoxyphenyl)-2,2-(dimethyl)propoxymethyl]-2′-deoxyuridine]	183 µM
O=c1[nH]c(=O)n([C@H]2C[C@H](O)[C@@H](CO)O2)cc1COC(c1ccccc1)c1ccccc1[N+](=O)[O-] (stereo partly drawn) [KB-1-85, 5-[{(2-nitrophenyl)phenyl}methoxymethyl]-2′-deoxyundine]	50 µM
CC(C)(C)CC(OCc1cn([C@H]2C[C@H](O)[C@@H](CO)O2)c(=O)[nH]c1=O)c1ccccc1[N+](=O)[O-] (stereo partly drawn) [KB-1-91, 5-[1-(2-nitrophenyl)-3,3-(dimethyl)butoxymethyl]-2′-deoxyuridine]	62 µM
Cc1ccccc1C(OCc1cn([C@H]2C[C@H](O)[C@@H](CO)O2)c(=O)[nH]c1=O)C(C)(C)C (stereo partly drawn) [KB-1-100, 5-[1-(2-methyl)phenyl-2,2-(dimethyl)propoxymethyl]-2′-deoxyuridine]	121 µM
CC(C)(C)C(OCc1cn([C@H]2C[C@H](O)[C@@H](CO)O2)c(=O)[nH]c1=O)c1ccccc1CBr (stereo partly drawn) [KB-1-135, 5-[1-(2-bromomethyl)phenyl-2,2-(dimethyl)propoxymethyl]-2′-deoxyuridine]	72 µM
CC(C)(C)C(OCc1cn([C@H]2C[C@H](O)[C@@H](CO)O2)c(=O)[nH]c1=O)c1ccc(I)cc1[N+](=O)[O-] (stereo partly drawn) [MPB-1-33, 5-[1-(4-iodo-2-nitrophenyl)-2,2-(dimethyl)propoxymethyl]-2′-deoxyuridine]	56 ± 6 µM
COc1ccccc1C(OCc1cn([C@H]2C[C@H](O)[C@@H](CO)O2)c(=O)[nH]c1=O)C(C)(C)C (stereo partly drawn) [MPB-1-36, 5-[1-(2-methoxyphenyl)-2,2-(dimethyl)propoxymethyl]-2′-deoxyuridine]	94 µM
CC(C)(C)C(OCc1cn([C@H]2C[C@H](O)[C@@H](CO)O2)c(=O)[nH]c1=O)c1ccc(C#CCOc2ccc3ccc(=O)oc3c2)cc1[N+](=O)[O-] (stereo partly drawn) [MPB-1-41, 5-[1-(4-{3-(7-coumarin)oxy}proyn-1-yl-2-nitrophenyl)-2,2-(dimethyl)propoxymethyl]-2′-deoxyuridine]	16 ± 3 µM
CC(C)(C)C(OCc1cn([C@H]2C[C@H](O)[C@@H](CO)O2)c(=O)[nH]c1=O)c1ccccc1Cl (stereo partly drawn) [MPB-1-49, 5-[1-(2-chlorophenyl)-2,2-(dimethyl)propoxymethyl]-2′-deoxyundine]	80 µM
CC(C)(C)C(OCc1cn([C@H]2C[C@H](O)[C@@H](CO)O2)c(=O)[nH]c1=O)c1c([N+](=O)[O-])cccc1[N+](=O)[O-] (stereo partly drawn) [MPB-1-55, 5-[1-(2,6-dinitrophenyl)-2,2-(dimethyl)propoxymethyl]-2′-deoxyuridine]	96 µM
CC(C)(C)C(OCc1cn([C@H]2C[C@H](O)[C@@H](CO)O2)c(=O)[nH]c1=O)c1c(Cl)cccc1Cl (stereo partly drawn) [MPB-1-57, 5-[1-(2,6-dichlorophenyl)-2,2-(dimethyl)propoxymethyl]-2′-deoxyuridine]	60 µM
O=c1[nH]c(=O)n([C@H]2C[C@H](O)[C@@H](CO)O2)cc1COC(c1ccccc1)C1CCCCC1 (stereo partly drawn) [PRW-1-13, 5-[1-(phenyl)-1-(cyclohexyl)methoxymethyl]-2′-deoxyundine]	93 µM
O=c1[nH]c(=O)n([C@H]2C[C@H](O)[C@@H](CO)O2)cc1COC(c1ccccc1[N+](=O)[O-])C1CCCCC1 (stereo partly drawn) [PRW-1-18, 5-[1-(2-nitro)phenyl-1-(cyclohexyl)methoxymethyl]-2′-deoxyuridine]	63 µM
CC(C)(C)CC(OCc1c[nH]c(=O)[nH]c1=O)c1ccccc1 (stereo not drawn) [SL-1-7, 5-[1-phenyl-3,3-(dimethyl)butoxymethyl]uracil]	37 µM
COc1cccc(C(OCc2cn([C@H]3C[C@H](O)[C@@H](CO)O3)c(=O)[nH]c2=O)C(C)(C)C)c1 (stereo partly drawn) [SS-1-11, 5-[1-(3-methoxyphenyl)-2,2-(dimethyl)propoxymethyl]-2′-deoxyundine]	66 µM
O=c1[nH]c(=O)n([C@H]2C[C@H](O)[C@@H](CO)O2)cc1COC(c1ccccc1)c1c([N+](=O)[O-])cccc1[N+](=O)[O-] (stereo partly drawn) [TZ-1-13F3, 5-[{(2,6-dinitrophenyl)phenyl}methoxymethyl]-2′-deoxyuridine]	44 µM
CC(OCc1cn([C@H]2C[C@H](O)[C@@H](CO)O2)c(=O)[nH]c1=O)c1ccccc1[N+](=O)[O-] (stereo partly drawn) [VAL-1-26, 5-[1-(2-nitrophenyl)ethoxymethyl]-2′-deoxyuridine]	~150 µM
CC(C)(C)C(OCc1cn([C@H]2C[C@H](O)[C@@H](CO)O2)c(=O)[nH]c1=O)c1ccccc1C#N (stereo partly drawn) [VAL-1-28, 5-[1-(2-cyanophenyl)-2,2-(dimethyl)propoxymethyl]-2′-deoxyuridine]	106 µM
COCC#Cc1ccc(C(OCc2cn([C@H]3C[C@H](O)[C@@H](CO)O3)c(=O)[nH]c2=O)C(C)(C)C)c([N+](=O)[O-])c1 (stereo partly drawn) [VAL-1-48, 5-[1-(4-{3-methoxy}proyn-1yl-2-nitrophenyl)-2,2-(dimethyl)-1-propoxymethyl]-2′-deoxyuridine]	74 ± 7 µM
CC(C)(C)C(OCc1cn([C@H]2C[C@H](O)[C@@H](CO)O2)c(=O)[nH]c1=O)c1ccc(C#C[Si](C)(C)C)cc1[N+](=O)[O-] (stereo partly drawn) [VAL-1-49, 5-[1-(4-{trimethylsilyl}acetylenyl-2-nitrophenyl)-2,2-(dimethyl)-1-propoxymethyl]-2′-deoxyuridine]	29 ± 3 µM
C#Cc1ccc(C(OCc2cn([C@H]3C[C@H](O)[C@@H](CO)O3)c(=O)[nH]c2=O)C(C)(C)C)c([N+](=O)[O-])c1 (stereo partly drawn) [VAL-1-50, 5-[1-(4-acetylenyl-2-nitrophenyl)-2,2-(dimethyl)propoxymethyl]-2′-deoxyuridine]	89 ± 14 µM

same assay, conditions: Homo sapiens, MCF7, 65 h, 65 hours incubation, read-out: IC50, viability of MCF7 cells from the MTT assay

SMILES	IC50
CC(C)C(OCc1c[nH]c(=O)[nH]c1=O)c1ccccc1 (stereo not drawn) [KB-1-1, 5-[1-phenyl-2-(methyl)propoxymethyl]uracil]	> 200 µM
O=c1[nH]c(=O)n([C@H]2C[C@H](O)[C@@H](CO)O2)cc1COC(c1ccccc1)c1ccccc1 [KB-1-10, 5-[(diphenyl)methoxymethyl]-2′-deoxyuridine]	160 µM
CC(C)COC(c1ccccc1)c1cn([C@H]2C[C@H](O)[C@@H](CO)O2)c(=O)[nH]c1=O (stereo partly drawn) [MPB-1-25, 5-[1-(phenyl)-2-(methyl)-1-propoxymethyl]-2′-deoxyuridine]	> 150 µM
CC(OCc1cn([C@H]2C[C@H](O)[C@@H](CO)O2)c(=O)[nH]c1=O)c1ccccc1 (stereo partly drawn) [VAL-1-10, 5-[1-(phenyl)ethoxymethyl]-2′-deoxyuridine]	> 200 µM
CC(OCc1cn([C@H]2C[C@H](O)[C@@H](CO)O2)c(=O)[nH]c1=O)c1ccccc1[N+](=O)[O-] (stereo partly drawn) [VAL-1-25, 5-[1-(2-nitrophenyl)ethoxymethyl]-2′-deoxyuridine]	~170 µM

Source: patent US20160101188A1, “NOVEL NANOCARRIER DELIVERED CANCER CHEMOTHERAPEUTIC AGENTS” (UNIVERSITY OF CINCINNATI, priority 2013, published 2016)
